The text below walks through data of PMC7766124, “Improved Cell Selectivity of Pseudin-2 via Substitution in the Leucine-Zipper Motif: In Vitro and In Vivo Antifungal Activity” (Antibiotics, 2020).

In brackets after ≈: the same amount, converted by molar mass. Read-outs that look alike come from different tables or passages of the source. No end group written: not given here.

For one series, the system named is A. fumigatus. It counts as cell-based, A. fumigatus (KCTC 6145). Particulars: 36 h. An excerpt: (§1) Aspergillus flavus (KCTC 6905), A. fumigatus (KCTC 6145), Fusarium moniliforme (KCTC 6149), F. oxysporum (KCTC 16909), C. albicans (KCTC 7270), C. krusei (CCARM 14017), C. parapsilosis (CCARM 14016), C. tropicalis (KCTC 7221), and T. beigelii (KCTC 7707) were obtained from the Korea Collection for Type Cultures (KCTC) and Culture Collection of Antimicrobial Resistant Microbes (CCARM). Mold and yeast fungi were pre-grown on potato dextrose (PD) and yeast extract peptone dextrose (YPD) agars, respectively.
(§2) Antifungal activity of peptides was performed by microtiter plate assays. Fungal conidia from four-day-old molds were collected using 0.08% Triton X-100 (v/v), and pre-cultivated yeast cells were adjusted to 2 × 10^4 spores/mL in 10 mM sodium phosphate buffer (SP, pH 7.2) or 10 mM 2-(N-morpholino)ethanesulfonic acid (MES) buffer (pH 5.5) supplemented with 20% culture medium, followed by addition to peptide solutions (0.25, 0.5, 1, 1.5, 2, 4, 6, 8, 12, 16, 32, 48, and 64 µM) in 96-well microtiter plates. After incubation for 36 h at 28 °C, the hyphal growth of conidia and the proliferation of yeast cells were observed under a light microscope. All assays were performed in triplicate. The MIC values were defined as the lowest concentration of samples that reduced fungal germination (for mold) or cell proliferation (for yeast) by more than 90% [34].

The next series relates to F. oxysporum. It counts as cell-based, F. oxysporum (KCTC 16909). The following applies: 36 h.
Text: as §1, §2

The next series relates to F. moniliforme. It counts as cell-based, Fusarium moniliforme (KCTC 6149). The following applies: 36 h.
Text: as §1, §2

The subject of another series is C. tropicalis cells. As to the kind of experiment: SYTOX Green uptake (membrane permeability). The format is cell-based. Particulars: SP buffer pH 7.2, 0.5 μM SYTOX Green, peptides 1-64 µM, monitored 30 min. The protocol:
C. tropicalis cells pre-grown at 28 °C were washed and suspended (2 × 10^6 cells/mL) in SP buffer (pH 7.2). The cells were pre-incubated with SYTOX Green (final concentration of 0.5 μM) for 15 min in the dark, followed by adding two-fold serial dilutions of peptides at concentrations of 1 to 64 µM. The fluorescence intensity was monitored for 30 min at 485 (Ex) and 520 (Em) nm using a microtiter SpectraMax M5 reader (Molecular Devices, San Jose, CA, USA).

In a further series the test system is mouse erythrocytes. As to the kind of experiment: Hemolytic assay. It counts as cell-based. Particulars: 64 µM peptide, 8% (v/v) mRBCs, 37 °C, 2 h (method) / 4 h (figure legend). The protocol: Mouse blood was collected into sodium heparin-coated tubes (BD Vacutainer; BD Diagnostics, Oxford, UK). The mRBCs were obtained by centrifugation (800× g, 10 min) and washing with PBS. The washed mRBCs were added to a final concentration of 8% (v/v) in 64 µM peptide solution, followed by incubation for 2 h at 37 °C. After centrifugation, each tube was digitally recorded.

A further series has as its system C. tropicalis. It counts as cell-based, C. tropicalis (KCTC 7221). The following applies: 36 h.
Text: as §1, §2

The test system of a further series is C. krusei. The format is cell-based, C. krusei (CCARM 14017). The following applies: 36 h.
Text: as §1, §2

The subject of another series is C. albicans. It counts as cell-based, C. albicans (KCTC 7270). The following applies: 36 h.
Text: as §1, §2

For the next series, the system named is C. parapsilosis. It counts as cell-based, C. parapsilosis (CCARM 14016). The following applies: 36 h.
Text: as §1, §2

Series [1] in a line: Calcein leakage from fungus-mimic artificial vesicles. The following applies: fungus-mimic PC/PE/PI/ergosterol vesicles, 20 μM lipid; peptide/lipid molar ratio 0.05; 100% = 0.03% Triton X-100; three independent experiments. The protocol:
(§3) The permeability of peptides in calcein-entrapped artificial liposomes was assayed by measuring calcein leakage. The desired mixtures of lipids (PC/PE/PI/ergosterol, 5:4:1:2 and PC/CH/SM, 2:1:1, weight ratio) were dissolved in chloroform at 10 mg/mL, dried in a glass tube under nitrogen, and then lyophilized overnight to remove residual solvent. The dried lipid films were resuspended in 1 mL of dye solution (80 mM calcein, 10 mM HEPES buffer, pH 7.2) at 50 °C and vortexed, followed by freeze-thawing for nine cycles and extrusion with polycarbonate filters (0.2-μm pore-size) using an Avanti Mini-Extruder (Avanti Polar Lipids Inc., Alabaster, AL, USA). Free calcein was removed using PD-10 desalting columns (GE Healthcare Life Science, Seoul, Korea). Calcein-entrapped vesicles of 20 μM lipids were incubated with peptides at concentrations of […], 0.02, 0.05, and 0.1 molar ratio (peptide/lipid) and the fluorescence was assessed at 480 (Ex) and 520 (Em) nm using a microtiter SpectraMax M5 reader (Molecular Devices). Complete (100%) release was achieved by the addition of 0.03% Triton X-100 (v/v).

Another series has as its system A. flavus. The format is cell-based, Aspergillus flavus (KCTC 6905). The following applies: 36 h.
Text: as §1, §2

A short description of series [2]: Calcein leakage from mammalian-mimic artificial vesicles. Particulars: mammalian-mimic PC/CH/SM vesicles, 20 μM lipid; peptide/lipid molar ratio 0.1; 100% = 0.03% Triton X-100. The protocol: as §3
The test system of a further series is T. beigelii. The format is cell-based, T. beigelii (KCTC 7707). The following applies: 36 h.
Text: as §1, §2

The subject of the next series is HaCaT cells. Description: Cytotoxicity, XTT cell viability assay. The format is cell-based, human. The following applies: peptides 4-256 µM, 24 h incubation, triplicate. The protocol: Cell viability was assessed using sodium XTT assays. HaCaT (human immortalized keratinocytes) cells were cultured in Dulbecco’s modified Eagle medium (DMEM; ThermoFisher Scientific, Gibco, Waltman, MA, USA) supplemented with antibiotic-antimycotic (ThermoFisher Scientific, Gibco) and 10% fetal bovine serum (FBS; ThermoFisher Scientific, Gibco) at 37 °C in a humidified chamber containing 5% CO2. The cells were seeded at 5 × 10^4 cells/mL in flat-bottom 96-well microtiter plates in triplicate. Twenty-four hours later, cells were treated with two-fold serial dilutions of peptides (ranging from 256 to 4 µM) in medium, and the cells were further incubated for 24 h. Next, activated-XTT solution was added to each well and the plates were additionally incubated for 4 h. Absorbance in each well was measured at wavelengths of 480 and 650 nm using a microtiter SpectraMax M5 reader (Molecular Devices, Sunnyvale, CA, USA). Triton X-100 (0.1% v/v) and DMEM were used as controls for survival.

Where [3] appears, read: 10 mM sodium phosphate buffer pH 7.2 with 20% culture medium, 28 °C, triplicate.
The mark [4] stands for this setting: acidic: 10 mM MES buffer pH 5.5 with 20% culture medium (value in parentheses), 28 °C, triplicate.

Turning to `CC[C@H](C)[C@H](NC(=O)CN)C(=O)NCC(=O)N[C@@H](C)C(=O)N[C@H](C(=O)N[C@@H](CC(C)C)C(=O)N[C@@H](CCCCN)C(=O)N[C@H](C(=O)N[C@@H](CC(C)C)C(=O)N[C@H](C(=O)N[C@H](C(=O)NCC(=O)N[C@@H](CC(C)C)C(=O)N1CCC[C@H]1C(=O)N[C@@H](C)C(=O)N[C@@H](CC(C)C)C(=O)N[C@H](C(=O)N[C@@H](CO)C(=O)N[C@@H](Cc1c[nH]c2ccccc12)C(=O)N[C@H](C(=O)N[C@@H](CCCCN)C(=O)N[C@@H](CCCNC(=N)N)C(=O)N[C@@H](CCCCN)C(=O)N[C@@H](CCCNC(=N)N)C(=O)N[C@@H](CCC(N)=O)C(=O)N[C@@H](CCC(N)=O)C(N)=O)[C@@H](C)CC)[C@@H](C)CC)[C@@H](C)O)[C@@H](C)O)C(C)C)C(C)C` [Melittin, reference compound], the MIC in the series on A. fumigatus (setting [3]) is on record as 6 µM (≈ 17.1 µg/mL); in the series with A. fumigatus (setting [4]), 4 µM (≈ 11.4 µg/mL); in the series on F. oxysporum (setting [3]) it was 64 µM (≈ 182 µg/mL); with F. oxysporum (setting [4]), 32 µM (≈ 91.1 µg/mL); in the series with F. moniliforme (setting [3]), 32 (32) µM; in the series with F. moniliforme (setting [4]) it was 32 (32) µM. The MIC was 16 µM (≈ 45.5 µg/mL) against C. tropicalis (setting [3]); 8 µM (≈ 22.8 µg/mL) in the series on C. tropicalis (setting [4]); 8 µM (≈ 22.8 µg/mL) with C. krusei (setting [3]); 4 µM (≈ 11.4 µg/mL) with C. krusei (setting [4]); 32 µM (≈ 91.1 µg/mL) in the series on C. albicans (10 mM sodium phosphate buffer pH 7.2 with 20% culture medium, 28 °C, >90% reduction of proliferation, triplicate); 8 µM (≈ 22.8 µg/mL) with C. albicans (setting [4]). For the same compound, the MIC is recorded as 16 µM (≈ 45.5 µg/mL) in the series with C. parapsilosis (setting [3]); 8 µM (≈ 22.8 µg/mL) with C. parapsilosis (setting [4]); 6 µM (≈ 17.1 µg/mL) against A. flavus (10 mM sodium phosphate buffer pH 7.2 with 20% culture medium, 28 °C, >90% reduction of germination, triplicate); 4 µM (≈ 11.4 µg/mL) in the series on A. flavus (setting [4]); 2 (2) µM against T. beigelii (setting [3]); 2 (2) µM with T. beigelii (setting [4]). The “SYTOX Green fluorescence intensity” value in the series on C. tropicalis cells is “gradual, concentration-dependent increases in fluorescence intensity”. The “hemolytic effects (hemoglobin release, by visualization)” value in the series with mouse erythrocytes is given as “severe hemolysis”. Besides, the leakage of calcein in [1] is 84.1%. Moreover, the calcein efflux entry in series [2] was “significant dye leakage”.

Take GANALKKVAQGIHEAIKLINNHVQ-NH2 [P2-LZ2]: the MIC against A. fumigatus (pH 5.5) is recorded as 16 µM; against A. fumigatus (pH 7.2) it was 24 µM; in the series with F. oxysporum (pH 5.5), 16 µM; in the series with F. oxysporum (pH 7.2) it was 2 µM; in the series with F. moniliforme (pH 5.5) it was 16 µM; with F. moniliforme (pH 7.2) it was 24 µM. The MIC in the series on C. tropicalis (pH 5.5) is listed as 1.5 µM; in the series on C. tropicalis (pH 7.2), 2 µM; with C. krusei (pH 5.5) it was 4 µM; in the series with C. krusei (pH 7.2) it was 6 µM; in the series with C. albicans (pH 5.5) it was 32 µM; against C. albicans (pH 7.2), 4 µM. Also, the MIC against C. parapsilosis (pH 5.5) is 64 µM; against C. parapsilosis (pH 7.2), 48 µM; in the series with A. flavus (pH 5.5), 12 µM; against A. flavus (pH 7.2), 32 µM; against T. beigelii (pH 5.5) it was 2 (2) µM; against T. beigelii (pH 7.2), 2 (2) µM. In addition, the leakage of calcein in series [1] is recorded as 77.0%.

Consider GLNAAKKVFQGAHEAIKLINNHVQ-NH2 [P2-LZ1], for which the MIC is given as 16 µM against A. fumigatus (pH 5.5); 64 µM against A. fumigatus (pH 7.2); 12 µM in the series with F. oxysporum (pH 5.5); 4 µM in the series on F. oxysporum (pH 7.2); 48 (48) µM against F. moniliforme (pH 5.5); 48 (48) µM against F. moniliforme (pH 7.2). The MIC is on record as 2 µM with C. tropicalis (pH 5.5); 4 µM against C. tropicalis (pH 7.2); 8 (8) µM against C. krusei (pH 5.5); 8 (8) µM in the series on C. krusei (pH 7.2); 32 µM in the series on C. albicans (pH 5.5); 8 µM in the series with C. albicans (pH 7.2). Moreover, the MIC in the series on C. parapsilosis (pH 5.5) is > 64 (>64) µM; in the series on C. parapsilosis (pH 7.2), > 64 (>64) µM; in the series with A. flavus (pH 5.5) it was 12 µM; with A. flavus (pH 7.2) it was 64 µM; against T. beigelii (pH 5.5) it was 2 (2) µM; against T. beigelii (pH 7.2), 2 (2) µM. Further, in the series with HaCaT cells, the “cytotoxic effects against HaCaT cells” value is given as “significant, concentration-dependent cytotoxic effects”. In addition, in series [1], the leakage of calcein is listed as 81.8%.

Turning to GLNALKKVFQGAHEAIKLANNHVQ-NH2 [P2-LZ3], the MIC in the series on A. fumigatus (pH 5.5) is 16 µM; in the series with A. fumigatus (pH 7.2), 64 µM; with F. oxysporum (pH 5.5), 16 µM; against F. oxysporum (pH 7.2) it was 4 µM; in the series on F. moniliforme (pH 5.5), 32 µM; with F. moniliforme (pH 7.2) it was 64 µM. Besides, the MIC in the series on C. tropicalis (pH 5.5) is reported as 2 (2) µM; in the series with C. tropicalis (pH 7.2), 2 (2) µM; against C. krusei (pH 5.5), 8 (8) µM; in the series with C. krusei (pH 7.2), 8 (8) µM; in the series with C. albicans (pH 5.5), 16 µM; in the series with C. albicans (pH 7.2), 8 µM. The MIC is >64 (>64) µM in the series with C. parapsilosis (pH 5.5); >64 (>64) µM with C. parapsilosis (pH 7.2); 32 µM in the series with A. flavus (pH 5.5); 64 µM against A. flavus (pH 7.2); 2 µM against T. beigelii (pH 5.5); 6 µM in the series on T. beigelii (pH 7.2). In addition, in series [1], the leakage of calcein is reported as 48.3%.
